Data published in patent US9505741B2, “Prolylhydroxylase inhibitors and methods of use” (CORNELL UNIVERSITY, priority 2010, dated 2016).

What was measured:
[1] = system: HIF ODD-luc reporter (HIF PHD-controlled stability); assay: HTS with cell-based HIF ODD-luciferase reporter (SH-SY5Y-ODD-luc cells); set-up: species or system human; settings: three hours; for activation at 10 µM: Homo sapiens, 3 h, read-out: reporter activation (%) relative to ciclopirox (100%) and DMSO (0%)
From the text: For HTS, a cell-based reporter system was employed. The cell-based reporter system was generated by fusing HIF-1a oxygen degradable domain (ODD) to luciferase (Safran M. et al., PNAS, 2006, 103, 105-110), which represents a cell-based capture assay monitored by the consumption of the luciferase-labeled HIF substrate under the conditions more physiological than in vitro test tubes. In accord with their structure activity relationship in reporter assay, the best “hits” stabilize HIF1, upregulate known HIF target genes in a human neuronal line, and exert neuroprotective effects in established model of oxidative stress in cortical neurons.
The reporter cell lines constitutively expressing ODD-luc (human neuroblastoma, SH-SY5Y) were stable for more than one year without significant change in their response to canonical PHD inhibitors such as DFO, dihydroxybenzoate (DHB), dimethyloxalylglycine (DMOG), and ciclopirox (FIG. 1B). In order to verify the specificity of luciferase changes as an assay for PHD activity, several control lines were developed: the control line expressing ODD-luc with proline 564 and 567 mutated to Ala generates luciferase fusion that cannot be degraded and experimentally identifies a ceiling level of ODD-luc protein attainable in these cells. The background signal for the wild-type HIF ODD-luc line (PYIP) corresponds to approximately 5-6% of the ODD-luc levels in the control line AYIA (double mutant P564A/P567A line) (FIG. 2). Treatment with 10 μM ciclopirox results in a 10-fold increase of a background signal for the wild-type ODD-luc reporter (PYIP line), i.e. reaches almost 50% of the threshold value (FIG. 2).
The assay was optimized for HTS format to provide Z values above 0.7. SH-SY5Y-ODD-luc cells were plated into 384—well white flat-bottom plates at 7,000 cell/well in 30 μl of serum and incubated overnight at 37° C., 5% CO2. The next day, compounds were added to a final concentration of 10 μM, plates were incubated for three hours at 37° C., and luciferase activity was measured using SteadyGlo™ reagent (Promega). Each plate had two internal standards, ciclopirox (100%), and DMSO (0%). The reporter activation (%) was calculated as a ratio (L−LDMSO)/(Lciclopirox−LDMSO). Hits were defined as those >25%. HTS of 85,000 compounds was performed at Rockefeller HTS Resource Center. 295 hits from the initial screen have been tested in quadruplicate, 160 were confirmed. Classification into 10 structural clusters has been done manually; 25 hits were singletons.

[2] = system: HIF ODD-luc reporter (HIF PHD-controlled stability); assay: ODD-luc reporter, concentration titration and kinetics of reporter activation (extended SAR); type: cell-based, human; settings: for Ki: linear plot 1/(K0−v) vs inhibitor concentration, read-out: apparent inhibition constant from time course of reporter activation
From the text: The HIF ODD-luciferase reporter system is controlled by the rate of PHD catalyzed reaction, and from an enzyme kinetics point of view, it is a “capture assay” monitored by the consumption of a substrate, the heterologously expressed HIF ODDluciferase fusion protein. In the kinetic regime, i.e. monitoring the time-course of luminescence changes (FIG. 3A), the ODD-luc reporter system permits quantitative characterization of promoter capacity (Ko, rate of fusion protein generation), enzyme activity, and inhibition constant determination.
The rate of fusion accumulation equals the rate of its production (Ko) minus the rate of the rate-limiting step, controlled by HIF PHDs, which obeys Michaelis-Menten kinetics, as follows: v=d[ODDluc]/dt=K0−k1[PHD][ODDluc]/{Km(1+[I]/K1)+[ODDluc]} (Eq.1)
The background luminescence signal calibrated with recombinant luciferase allows an estimation of the steady-state concentration of the ODD-luc fusion protein. Under the conditions used the steady-state value of 60 rlu (relative light units) corresponds to 1 pg luciferase protein; dividing this number by the total cell volume taken as a single cell volume (233μ^3) multiplied by 30,000 cells/well density (number of cells in a 96 well dish), the ODD-luc fusion protein steady-state concentration is found to be equal to 2.3 nM, which is well below all reported Km values for HIF1 (Dao, J. H., et al., Anal Biochem 384, 213-223 2009; Hewitson, K. S., et al., Methods Enzymol 435, 25-42 2007; Koivunen, P., et al., J Biol Chem 281, 28712-28720 2006; Tuckerman, J. R., et al., FEBS Lett 576, 145-150 2004. Therefore, it is preferable to work under nonsaturating conditions with respect to HIF substrate, i.e. optimal conditions for selecting inhibitors competitive against HIF substrate. Moreover, as compared to the in vitro assay, which uses a 19 amino acid peptide fragment surrounding the oxygen dependent domain (ODD), the instant ODD-luciferase construct contains 123 amino acid acids, and thus, more closely emulates the behavior of native HIF. The initial concentration of fusion can be considered much lower than Km, and thus, can be ignored in the rate equation: v=d[ODDluc]/dt=K0−k1[PHD][ODDluc]/Km(1+[I]/K1) (Eq.2)
Knowing the capacity of the promoter, the inhibition constant can be determined, but not the inhibition type, from the initial rates of signal accumulation at varied fixed concentrations of potential inhibitor. The capacity of promoter, K0 can be determined under the conditions of total inhibition of PHD activity by means of complete iron deprivation achieved in the presence of high concentrations of ciclopirox, i.e. when the increase in the ciclopirox concentrations give no further increase in the rate of luciferase signal growth (FIG. 3B). […]

[3] = Iron binding by calcein displacement from its iron complex; type: physicochemical
Protocol: The iron chelation ability is determined by displacement of calcein from its complex with iron monitored by fluorescence (excitation 490 nm, emission 523 nm, cut-off 515 nm) on a Spectramax M5e platereader (Molecular Devices). The apparent binding constant for calcein (ca.50 nM) was determined from Fe titration curve for 1 μM calcein in 5 mM Tris-HCl buffer, pH 7.5. The ratio between the iron binding constant for calcein and a particular compound, i.e., KQ/KCa, was estimated by fitting the titration curve into the dependence of [Fe]o vs. Y, where Y═[Ca—Fe]/[Ca] is a ratio of calcein-bound Fe to free (fluorescent) calcein: [Fe]o=KCaY+[Ca]oY/(Y+1)+[Q]oY/(Y+KQ/KCa) (Eq.4)
The association rate constant was determined as the second order rate constant for calcein displacement from its complex with iron (1 μM:1 μM) upon addition of an oxyquinoline (5-20 μM) calculated from the slope of a linear plot of the initial rate of calcein release vs. the concentration of oxyquinoline added. All experiments were performed in triplicates or more. All values are presented as mean±S.E.M.

CCC(C)C(N)C(=O)Nc1nnc(-c2ccc(Br)cc2)s1 (stereo not drawn) [2-amino-N-(5-(4-bromophenyl)-[1,3,4]thiadiazol-2-yl)-3-methylpentanamide]
reporter activation in HTS, in words ([1]; 10 μM): no reporter activation at all

COc1ccc(-c2nnc(NC(=O)C(N)Cc3ccccc3)s2)cc1 (stereo not drawn) [2-amino-N-(5-(4-methoxy-phenyl)-[1,3,4]thiadiazol-2-yl)-3-phenylpropanamide]
reporter activation in HTS, in words ([1]; 10 μM): no reporter activation at all

O=C(C=C(O)c1ccccc1)c1ccccc1O [2′β-dihydroxychalcone]
fold reporter activation over background ([1]; 10 μM, SH-SY5Y-ODD-luc): 7.5 fold
reporter activation (%) relative to ciclopirox (100%) and DMSO (0%) ([1]; 10 μM, SH-SY5Y-ODD-luc): 71%

Oc1cccc(CN2CCCn3cccc3C2c2ccc(F)cc2)c1O (stereo not drawn) [3-((1-(4-fluorophenyl)-4,5-dihydro-1H-pyrrolo[1,2-a][1,4]diazepin-2(3H)-yl)methyl)benzene-1,2-diol]
activation at 10 µM ([1]; SH-SY5Y-ODD-luc): 40%

Oc1cccc(CN2CCN(CCOC(c3ccccc3)c3ccc(F)c(F)c3)CC2)c1O (stereo not drawn) [3-((4-(2-((3,4-difluorophenyl) (phenyl)methoxy)ethyl)piperazin-1-yl)methyl)benzene-1,2-diol]
activation at 10 µM ([1]; SH-SY5Y-ODD-luc): 60%

FC(F)(F)c1ccccc1-n1c(S)nnc1-c1nccc2ccccc12 [5-isoquinolin-1-yl-4-(2-trifluoromethyl-phenyl)-4H-[1,2,4]triazole-3-thiol]
reporter activation in HTS, in words ([1]; 10 μM): close to that for the internal standard

O=C1/C(=N\Nc2nc3ccccc3s2)C(c2ccccc2)=NN1c1ccccc1 [(Z)-4-(benzo[d]thiazol-2-ylhydrazono)-1,3-diphenyl-1H-pyrazol-5(4H)-one]
activation at 10 µM ([1]; SH-SY5Y-ODD-luc): 70%

N[C@H](Cc1ccc(O)c(O)c1)C(=O)O [D-dopa, reference compound]
reporter activation in HTS, in words ([1]; 10 μM): not

CCOC(=O)c1ccc(O)c(O)c1 [DHB, Ethyl-3,4-dihydroxybenzoate]
concentration at which the reporter is activated ([2]; FIG. 1B): > 50 µM
Ki [2]: 520 µM

COC(=O)CNC(=O)C(=O)OC [DMOG, dimethyloxalylglycine]
Ki [2]: 1300 µM

O=C1/C(=N\Nc2nccs2)C(c2ccccc2)=NN1c1ccccc1 [I, (Z)-1,3-diphenyl-4-(thiazol-2-yl-hydrazono)-1H-pyrazol-5(4H)-one]
activation at 10 µM ([1]; SH-SY5Y-ODD-luc): 86%

NNc1nc(-c2ccccc2)cc(-c2ccccc2)n1 [II, 2-hydrazinyl-4,6-diphenylpyrimidine]
iron binding / chelation ability in solution, in words [3]: no iron chelation properties in solution
fold reporter activation over background ([1]; 10 μM, SH-SY5Y-ODD-luc): 6.7 fold
activation at 10 µM ([1]; SH-SY5Y-ODD-luc): 64%

S=C(Nc1ccccc1)Nc1nccs1 [III, 1-phenyl-3-(1,3-thiazol-2-yl)thiourea]
fold reporter activation over background ([1]; 10 μM, SH-SY5Y-ODD-luc): five-fold
activation at 10 µM ([1]; SH-SY5Y-ODD-luc): 41%

O=C(Nc1nnc(-c2cccc(Br)c2)s1)C1CCCN1 (stereo not drawn) [IV, N-[5-(3-bromophenyl)-[1,3,4]thiadiazol-2-yl]pyrrolidine-2-carboxamide]
activation at 10 µM ([1]; SH-SY5Y-ODD-luc): 35%

N[C@@H](Cc1ccc(O)c(O)c1)C(=O)O [L-Dopa, reference compound]
fold reporter activation over background ([1]; 10 μM, SH-SY5Y-ODD-luc): 3 fold
activation at 10 µM ([1]; SH-SY5Y-ODD-luc): 21%
IC50 ([2]; Homo sapiens, ODD-luc reporter): 15 µM

CC(C)n1c(S)nnc1-c1nccc2ccccc12 [V, 4-isopropyl-5-isoquinolin-1-yl-4H-[1,2,4]triazole-3-thiol]
reporter activation in HTS, in words ([1]; 10 μM): close to that for the internal standard
activation at 10 µM ([1]; SH-SY5Y-ODD-luc): 90%

O=C1/C(=C\c2ccc(O)c(O)c2)SC(=S)N1c1ccccc1 [VI, (E)-5-(3,4-dihydroxybenzylidene)-3-phenyl-2-thioxothiazolidin-4-one]
activation at 10 µM ([1]; SH-SY5Y-ODD-luc): 38%

Oc1c(Br)cc(Br)c2cccnc12 [broxyquinoline, reference compound]
reporter activation in HTS, in words ([1]; 10 μM): comparable

C[C@@](Cc1ccc(O)c(O)c1)(NN)C(=O)O [carbidopa, reference compound]
reporter activation in HTS, in words ([1]; 10 μM): not

O=C(CCl)c1ccc(O)c2ncccc12 [chloroacetoquinoline]
reporter activation in HTS, in words ([1]; 10 μM): comparable to 8-hydroxyquinoline itself

Oc1c(Cl)cc(Cl)c2cccnc12 [chloroxine, reference compound]
reporter activation in HTS, in words ([1]; 10 μM): comparable

Cc1cc(C2CCCCC2)n(O)c(=O)c1 [ciclopirox, reference compound]
fold reporter activation over background ([1]; 10 μM, SH-SY5Y-ODD-luc): 10 fold

Oc1c(I)cc(Cl)c2cccnc12 [clioquinol, reference compound]
reporter activation in HTS, in words ([1]; 10 μM): comparable

NCCc1ccc(O)c(O)c1 [dopamine, reference compound]
reporter activation in HTS, in words ([1]; 10 μM): not

CC1=NN(c2ccccc2)C(=O)C1 [edaravone, reference compound]
reporter activation in HTS, in words ([1]; 10 μM): no reporter activation
